This note sets out measurements from patent US20110112151A1, “COMPOUND CAPABLE OF INHIBITING 11-BETA HYDROXYSTERIOD DEHYDROGENASE” (priority 2008, published 2011).

The target in one data set is T1, 11β-HSD1 (Homo sapiens, UniProt P28845).
T1 construct: expressed in transfected cells; host or cells: HEK 293 (stably transfected, HEK 293/HSD11B1)
The data set is described as follows: 11β-HSD1 HEK assay (cell based assay, SPA). To be noted: HEK293; at 1 μM; whole HEK 293 cells stably transfected with the HSD11B1 gene, 3H-cortisone substrate; read-out: Activity (inhibition of 11β-HSD1). As to the method: 11β-HSD1 HEK Assay Protocol (Cell Based Assay)
11β-HSD1 activity is measured in whole HEK 293 cells stably transfected with the HSD11B1 gene. Cells are incubated in 96-well microplates in the presence of tritiated substrate. Enzyme activity is determined by measuring the amount of tritated product by scintillation proximity assay (SPA). Assay plates contain internal high and low controls to allow calculation of percentage inhibition.
1. […] 2. When the cells are 80% confluent the medium is removed from each well. 100 μl fresh, serum-free, medium containing ^3H-cortisone and test compound in 1% DMSO is added to each well*. Control wells are also dispensed. […] 3. The plate is incubated at 37° C. for the required time period. 4. 50 μl of media is removed from each well and transferred to a microplate containing 100 μl of a pre-incubated mixture of anti-cortisol antibody and SPA bead. The mixture is incubated with gentle shaking until equilibrium is reached, before transferring to a scintillation counter to establish the enzyme activity in each sample.
10 μl of compound is dispensed into each well of a 96-well microplate in 10% DMSO at 100 μM concentration. 90 μl media containing ^3H-cortisone is added to each well. The compound/media/substrate mixture is then transferred to the assay plate containing the cells. […]

T1 sequence (P28845 whole entry): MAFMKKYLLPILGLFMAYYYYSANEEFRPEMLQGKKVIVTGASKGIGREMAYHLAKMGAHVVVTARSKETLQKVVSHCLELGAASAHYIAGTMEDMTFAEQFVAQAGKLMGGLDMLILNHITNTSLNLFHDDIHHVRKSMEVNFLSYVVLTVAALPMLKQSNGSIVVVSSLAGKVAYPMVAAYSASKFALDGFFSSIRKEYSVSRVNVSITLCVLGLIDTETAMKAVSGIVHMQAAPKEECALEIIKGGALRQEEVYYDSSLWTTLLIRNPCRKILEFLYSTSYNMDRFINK

A word on the inhibition: it is how much of the control response was suppressed. As a reminder, the melting point is the temperature of the solid-liquid transition. As to `O=C(Nc1nnc(SCC(=O)C23CC4CC(CC(C4)C2)C3)s1)C1CC1` [Example 95, N-(5-{[2-(Adamantan-1-yl)-2-oxoethyl]sulfanyl}-1,3,4-thiadiazol-2-yl)cyclopropanecarboxamide], the melting point was in the range of 218 to 219 °C. Moreover, the inhibition at 1 µM at 11β-HSD1 is 20 to 60%.

Compound `O=C(C[S+]([O-])Cc1ccccn1)C12CC3CC(CC(C3)C1)C2` (centres unmarked) [Example 17, 1-Adamantan-1-yl-2-(pyridin-2-ylmethanesulfinyl)-ethanone] had a melting point of 87 to 88.5 °C. For the same compound, on 11β-HSD1, the inhibition at 1 µM is > 60%.

Consider `O=C(CS(=O)(=O)c1ccc(C(F)(F)F)cn1)C12CC3CC(CC(C3)C1)C2` [Example 67, 1-Adamantan-1-yl-2-(5-trifluoromethyl-pyridine-2-sulfonyl)-ethanone], for which the melting point lay in the range of 138 to 139 °C. Besides, the inhibition at 1 µM at 11β-HSD1 lay in the range of 20 to 60%.

For the compound `CSc1nnc(SCC(=O)C23CC4CC(CC(C4)C2)C3)s1` [Example 106, 1-(Adamantan-1-yl)-2-{[5-(methylsulfanyl)-1,3,4-thiadiazol-2-yl]sulfanyl}ethan-1-one], the melting point lay within 133.5 to 135 °C. In addition, at 11β-HSD1, the inhibition at 1 µM is > 60%.

For the compound `CN(C)c1nnc(SCC(=O)C23CC4CC(CC(C4)C2)C3)s1` [Example 104, 1-(Adamantan-1-yl)-2-{[5-(dimethylamino)-1,3,4-thiadiazol-2-yl]sulfanyl}ethan-1-one], the melting point is 150 to 151 °C. The inhibition at 1 µM on 11β-HSD1 is > 60%.

`Cn1c(SCC(=O)C23CC4CC(CC(C4)C2)C3)nc2ccccc21` [Example 14, 1-Adamantan-1-yl-2-(1-methyl-1H-benzoimidazol-2-ylsulfanyl)-ethanone] returned a melting point of 146 to 147.5 °C. Also, the inhibition at 1 µM at 11β-HSD1 is < 20%.

As to `Cc1nnc(SCC(=O)C23CC4CC(CC(C4)C2)C3)n1C(C)C` [Example 103, 1-(Adamantan-1-yl)-2-{[5-methyl-4-(propan-2-yl)-4H-1,2,4-triazol-3-yl]sulfanyl}ethan-1-one], the melting point lay within 119 to 120.5 °C. For the same compound, at 11β-HSD1, the inhibition at 1 µM was > 60%.

Turning to `COCc1nnc(SCC(=O)C23CC4CC(CC(C4)C2)C3)n1C` [Example 107, 1-(Adamantan-1-yl)-2-{[5-(methoxymethyl)-4-methyl-4H-1,2,4-triazol-3-yl]sulfanyl}ethan-1-one], the melting point is 109 to 111 °C. At 11β-HSD1, the inhibition at 1 µM was > 60%.

As to `Cc1nnc(SCC(=O)C23CC4CC(CC(C4)C2)C3)n1Cc1ccc(Cl)cc1` [Example 105, 1-(Adamantan-1-yl)-2-({4-[(4-chlorophenyl)methyl]-5-methyl-4H-1,2,4-triazol-3-yl}sulfanyl)ethan-1-one], the melting point lay within 158 to 159 °C. Further, the inhibition at 1 µM on 11β-HSD1 lay within 20 to 60%.

In the case of `O=C(CSCc1ccc(Cl)nc1)C12CC3CC(CC(C3)C1)C2` [Example 62, 1-Adamantan-1-yl-2-(6-chloro-pyridin-3-ylmethylsulfanyl)-ethanone], the melting point was 88 to 90 °C. Also, the inhibition at 1 µM on 11β-HSD1 lay within 20 to 60%.

For `CC(=O)Nc1nnc([S+]([O-])CC(=O)C23CC4CC(CC(C4)C2)C3)s1` (centres unmarked) [Example 94, N-(5-{[2-(Adamantan-1-yl)-2-oxoethane]sulfinyl}-1,3,4-thiadiazol-2-yl)acetamide], the melting point is 216 to 218 °C. In addition, the inhibition at 1 µM on 11β-HSD1 is > 60%.

On to `O=C(CSc1n[nH]c(-c2ccccc2)n1)C12CC3CC(CC(C3)C1)C2` [Example 89, 1-(Adamantan-1-yl)-2-[(5-phenyl-1H-1,2,4-triazol-3-yl)sulfanyl]ethanone], for which the melting point lay in the range of 187 to 188 °C. Moreover, the inhibition at 1 µM on 11β-HSD1 was < 20%.

Compound `Cc1cccc(SCC(=O)C23CC4CC(CC(C4)C2)C3)n1` [Example 26, 1-Adamantan-1-yl-2-(6-methyl-pyridin-2-ylsulfanyl)-ethanone] gave a melting point of 115.5 to 116.5 °C. Also, on 11β-HSD1, the inhibition at 1 µM is > 60%.
